Measurements reported in patent publication US9067922B2, “Chemical compounds” (Pfizer Limited, priority 2013, dated 2015).

These compounds were tested against URAT-1 transporter (Homo sapiens (Human), UniProt Q96S37) (assay: URAT-1 inhibitor activity: [14C]-uric acid uptake in CHO-URAT1(L)GFP#8 (CHO#8) cells, scintillation proximity). Conditions: inhibition of [14C]-uric acid (30 nM) uptake into CHO#8 cells; compound 0 to 10 μM; 4 parameter logistic fit.
Assay type: cell-based
Procedure, shortened: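 CHO cells stably expressing human URAT1 long isoform–eGFP fusion, pre-incubated 1 h in chloride-containing buffer pH 7.4, then given 30 nM [14C]-uric acid with compound (0–10 μM, 0.25% DMSO) in chloride-free gluconate buffer pH 7.4. Uptake measured by scintillation proximity on Cytostar plates.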

URAT-1 transporter, sequence (Q96S37 other isoform, or with tags, fused parts or gaps): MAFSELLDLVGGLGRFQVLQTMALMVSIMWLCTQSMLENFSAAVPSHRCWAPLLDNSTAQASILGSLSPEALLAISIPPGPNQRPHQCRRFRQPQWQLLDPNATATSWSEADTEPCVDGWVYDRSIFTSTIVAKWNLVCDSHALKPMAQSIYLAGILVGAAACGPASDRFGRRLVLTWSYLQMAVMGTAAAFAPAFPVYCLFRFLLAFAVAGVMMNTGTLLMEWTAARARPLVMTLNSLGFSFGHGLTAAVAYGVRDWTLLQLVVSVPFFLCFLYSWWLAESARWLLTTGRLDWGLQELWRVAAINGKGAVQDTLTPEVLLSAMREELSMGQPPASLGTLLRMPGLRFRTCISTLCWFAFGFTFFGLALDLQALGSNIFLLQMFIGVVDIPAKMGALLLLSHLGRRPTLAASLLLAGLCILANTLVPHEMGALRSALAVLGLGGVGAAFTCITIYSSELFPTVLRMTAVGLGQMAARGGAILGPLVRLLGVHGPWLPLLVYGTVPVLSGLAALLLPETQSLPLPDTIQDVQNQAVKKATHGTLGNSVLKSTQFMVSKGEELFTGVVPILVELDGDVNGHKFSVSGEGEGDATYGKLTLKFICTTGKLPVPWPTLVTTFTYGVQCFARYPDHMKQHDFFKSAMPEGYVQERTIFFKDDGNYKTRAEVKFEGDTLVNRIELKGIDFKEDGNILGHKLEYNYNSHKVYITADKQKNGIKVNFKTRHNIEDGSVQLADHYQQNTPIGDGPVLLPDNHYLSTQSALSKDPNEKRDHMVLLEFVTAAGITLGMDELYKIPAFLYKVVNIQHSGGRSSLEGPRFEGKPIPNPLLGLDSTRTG

| IC50 | Compound |
| --- | --- |
| 2330 nM | N#Cc1cc(Oc2cc(F)c(S(=O)(=O)Nc3ncccn3)cc2Cl)ccc1F [Example 225, 5-chloro-4-(3-cyano-4-fluorophenoxy)-2-fluoro-N-(pyrimidin-2-yl)benzenesulfonamide] |
| > 10000 nM | Cc1ccc(C(C)C)cc1Oc1ccc(S(=O)(=O)Nc2ccc(F)cn2)cc1C#N [Example 174, 3-cyano-N-(5-fluoropyridin-2-yl)-4-[2-methyl-5-(propan-2-yl)phenoxy]benzenesulfonamide] |
| 27 nM | COc1cc(Oc2ccc(S(=O)(=O)Nc3ccc(F)cn3)cc2C#N)ccc1Cl [Example 71, 4-(4-chloro-3-methoxyphenoxy)-3-cyano-N-(5-fluoropyridin-2-yl)benzenesulfonamide] |
| 92 nM | N#Cc1cc(S(=O)(=O)Nc2ccc(F)cn2)ccc1Oc1cc(F)cc(Cl)c1 [Example 28, 4-(3-chloro-5-fluorophenoxy)-3-cyano-N-(5-fluoropyridin-2-yl)benzenesulfonamide] |
| 37 nM | N#Cc1cc(S(=O)(=O)Nc2ccc(F)cn2)ccc1Oc1cncc(Cl)c1 [Example 202, 4-[(5-chloropyridin-3-yl)oxy]-3-cyano-N-(5-fluoropyridin-2-yl)benzenesulfonamide] |
| 53 nM | COc1ccc(Oc2ccc(S(=O)(=O)Nc3ccc(F)cn3)cc2C#N)cc1Cl [Example 148, 4-(3-chloro-4-methoxyphenoxy)-3-cyano-N-(5-fluoropyridin-2-yl)benzenesulfonamide] |
| 105 nM | N#Cc1ccc(Oc2ccc(S(=O)(=O)Nc3ccccn3)cc2C#N)cc1Cl [Example 89, 4-(3-chloro-4-cyanophenoxy)-3-cyano-N-(pyridin-2-yl)benzenesulfonamide] |
| 116 nM | COc1ccc(F)c(Oc2ccc(S(=O)(=O)Nc3ccc(F)cn3)cc2C#N)c1 [Example 166, 3-cyano-4-(2-fluoro-5-methoxyphenoxy)-N-(5-fluoropyridin-2-yl)benzenesulfonamide] |
| > 10000 nM | CC(C)c1ccc(Oc2ccc(S(=O)(=O)Nc3ccc(F)cn3)cc2C#N)cc1 [Example 126, 3-cyano-N-(5-fluoropyridin-2-yl)-4-[4-(propan-2-yl)phenoxy]benzenesulfonamide] |
| 74 nM | N#Cc1ccc(Oc2ccc(S(=O)(=O)Nc3ccc(F)cn3)cc2C#N)cc1 [Example 10, 3-cyano-4-(4-cyanophenoxy)-N-(5-fluoropyridin-2-yl)benzenesulfonamide] |
| > 10000 nM | CCOc1ccc(Oc2ccc(S(=O)(=O)Nc3ccc(F)cn3)cc2C#N)cc1 [Example 153, 3-cyano-4-(4-ethoxyphenoxy)-N-(5-fluoropyridin-2-yl)benzenesulfonamide] |
| 182 nM | CCc1cc(F)ccc1Oc1ccc(S(=O)(=O)Nc2ccc(F)cn2)cc1C#N [Example 56, 3-cyano-4-(2-ethyl-4-fluorophenoxy)-N-(5-fluoropyridin-2-yl)benzenesulfonamide] |
| 3740 nM | COc1ccc(Oc2ccc(S(=O)(=O)Nc3ccc(F)cn3)cc2C#N)cc1 [Example 188, 3-cyano-N-(5-fluoropyridin-2-yl)-4-(4-methoxyphenoxy)benzenesulfonamide] |
| 246 nM | N#Cc1cc(S(=O)(=O)Nc2ccc(F)cn2)ccc1Oc1cc(F)c(F)cc1Cl [Example 177, 4-(2-chloro-4,5-difluorophenoxy)-3-cyano-N-(5-fluoropyridin-2-yl)benzenesulfonamide] |
| 208 nM | N#Cc1cc(S(=O)(=O)Nc2ccc(F)cn2)ccc1Oc1ccccc1Cl [Example 9, 4-(2-chlorophenoxy)-3-cyano-N-(5-fluoropyridin-2-yl)benzenesulfonamide] |
| 206 nM | N#Cc1cccc(Oc2ccc(S(=O)(=O)Nc3ccc(F)cn3)cc2C#N)c1 [Example 14, 3-cyano-4-(3-cyanophenoxy)-N-(5-fluoropyridin-2-yl)benzenesulfonamide] |

| IC50 | Compound |
| --- | --- |
| 1780 nM | N#Cc1ccc(Oc2cc(F)c(S(=O)(=O)Nc3ncc(F)cn3)cc2Cl)cc1Cl [compound 226] |
| > 10000 nM | N#Cc1c(Cl)cccc1Oc1ccc(S(=O)(=O)Nc2ccncc2)cc1 [Example 217, 4-(3-chloro-2-cyanophenoxy)-N-(pyridin-4-yl)benzenesulfonamide] |
| > 10000 nM | COc1ccncc1Oc1ccc(S(=O)(=O)Nc2ccc(F)cn2)cc1C#N [Example 190, 3-cyano-N-(5-fluoropyridin-2-yl)-4-[(4-methoxypyridin-3-yl)oxy]benzenesulfonamide] |
| 25 nM | COc1ncc(Oc2ccc(S(=O)(=O)Nc3ccc(F)cn3)cc2C#N)cc1Cl [Example 70, 4-[(5-chloro-6-methoxypyridin-3-yl)oxy]-3-cyano-N-(5-fluoropyridin-2-yl)benzenesulfonamide] |
| 183 nM | N#Cc1cc(S(=O)(=O)Nc2ccc(F)cn2)ccc1Oc1ccc(F)cc1 [Example 183, 3-cyano-4-(4-fluorophenoxy)-N-(5-fluoropyridin-2-yl)benzenesulfonamide] |
| 233 nM | Cc1ccc(NS(=O)(=O)c2ccc(Oc3ccc(C#N)c(Cl)c3)c(C#N)c2)nc1 [compound 233] |
| > 10000 nM | N#Cc1cc(Oc2ccc(S(=O)(=O)Nc3ncccn3)cc2C#N)ccc1F [compound 209] |
| > 10000 nM | N#Cc1ccc(Oc2ccc(S(=O)(=O)Nc3cncnc3)cc2C#N)cc1Cl [Example 96, 4-(3-chloro-4-cyanophenoxy)-3-cyano-N-(pyrimidin-5-yl)benzenesulfonamide] |
| > 1670 nM | N#Cc1ccc(Oc2ccc(S(=O)(=O)Nc3ccc(F)cn3)cc2F)cc1F [Example 97, 4-(4-cyano-3-fluorophenoxy)-3-fluoro-N-(5-fluoropyridin-2-yl)benzenesulfonamide] |
| 329 nM | Cc1cc(C)cc(Oc2ccc(S(=O)(=O)Nc3ccc(F)cn3)cc2C#N)c1 [Example 150, 3-cyano-4-(3,5-dimethylphenoxy)-N-(5-fluoropyridin-2-yl)benzenesulfonamide] |
| > 10000 nM | N#Cc1cc(S(=O)(=O)Nc2ccc(F)cn2)ccc1Oc1ccc(N)cc1 [Example 224, 4-(4-aminophenoxy)-3-cyano-N-(5-fluoropyridin-2-yl)benzenesulfonamide] |
| 12 nM | N#Cc1ccc(Oc2ccc(S(=O)(=O)Nc3ccc(Cl)cn3)cc2C#N)cc1Cl [compound 232, 4-(3-chloro-4-cyanophenoxy)-N-(5-chloropyridin-2-yl)-3-cyanobenzenesulfonamide] |
| 129 nM | N#Cc1cc(S(=O)(=O)Nc2ccc(F)cn2)ccc1Oc1ccc(Cl)c(F)c1 [Example 55, 4-(4-chloro-3-fluorophenoxy)-3-cyano-N-(5-fluoropyridin-2-yl)benzenesulfonamide] |
| > 10000 nM | O=S(=O)(Nc1cccnn1)c1cc(Cl)c(Oc2ccc(Cl)cc2OC(F)F)cc1F [Example 85, 5-chloro-4-[4-chloro-2-(difluoromethoxy)phenoxy]-2-fluoro-N-(pyridazin-3-yl)benzenesulfonamide] |
| 53 nM | N#Cc1ccc(Oc2ccc(S(=O)(=O)Nc3ccc(F)cn3)cc2C#N)cc1F [Example 43, 3-cyano-4-(4-cyano-3-fluorophenoxy)-N-(5-fluoropyridin-2-yl)benzenesulfonamide] |

| Compound | IC50 |
| --- | --- |
| N#Cc1cc(S(=O)(=O)Nc2ccc(F)cn2)ccc1Oc1ccc(Cl)cc1OC(F)F [Example 74, 4-[4-chloro-2-(difluoromethoxy)phenoxy]-3-cyano-N-(5-fluoropyridin-2-yl)benzenesulfonamide] | > 10000 nM |
